Counter-ions that a name gives are not always drawn.
How the values were obtained:
[1] = system: Hennes 20 cells; assay: High density/low density 'arrest of proliferation' assay; type: cell-based, Chinese hamster; conditions: Hennes 20, 72 h, AlamarBlue
[2] = system: LNCaP C-33 cells; assay: Cell growth recovery assay; type: cell-based, human; conditions: PAV-617 0.3 µM 24 h, PAV-951 0.4 µM 6 h, followed
[3] = system: BB1 patient biopsy derived cell line (benign adenoma); assay: BB1 and BB5 adenoma versus carcinoma screen (confocal imaging); type: cell-based, human; conditions: 60 h, percent ChromaLive negative
[4] = system: NCI-60 cancer cell lines; conditions: for anti-cancer activity in NCI-60 single-dose testing: single dose 2.5 µM
[5] = system: Hennes 20 cells; assay: Cell growth recovery assay; type: cell-based, Chinese hamster; conditions: PAV-617 0.3 µM 24 h, PAV-951 0.4 µM 6 h, followed to day 14
Protocol: To confirm that the inhibition observed in low-density Hennes 20 cells resulted from temporary arrest of proliferation and not cell death, compound was removed after a period of treatment and cell growth was measured over the subsequent two weeks for recovery potential. Once compound was removed, following a period of recovery, cell proliferation was restored over time for both chemotypes (see figure 1f,g). By day 11, cell density in compound-treated cells had caught up to that in the DMSO-treated cells (see figure 1f,g).
A 96-well plate was seeded with either Hennes 20 or LNCaP C-33 cells at 500 cells per well in 90 µl of minimum essential media and incubated at 37°C for 24 h. 0.5% DMSO was diluted in media and added to six control wells for each plate. PAV-617 was diluted in media and added to three wells at a concentration of 0.3 µM. PAV-951 was diluted in media and added to concentration of 0.4 µM. After 24 h of PAV-617 treatment or 6 h of PAV-951 treatment, the medium containing compound was removed and replaced with fresh media. After 72 h (day 5), plates were assayed with AlamarBlue and fluorescence was read at 530/590. The medium containing AlamarBlue was removed and replaced with fresh media. After another 72 h (day 8) plates were assayed with AlamarBlue and fluorescence again, then medium containing AlamarBlue was removed and replaced with fresh media. […]

[6] = system: A549 human lung cancer xenograft; assay: A549 xenograft studies; conditions: for tumour growth inhibition (TGI): A549 xenograft, Gemcitabine 100 mg kg^−1 twice weekly
[7] = system: Mpox Zaire 79; type: cell-based, Mpox virus; conditions: read-out: EC50 against Mpox
[8] = system: A549; assay: In-house cancer cell viability screen (AlamarBlue); type: cell-based, human; conditions: for change of potency when compound is added at the time of plating rather than 24 h later: A549; for IC50: Homo sapiens, AlamarBlue
[9] = system: HT-29 colorectal cancer xenograft; assay: HT-29 xenograft study; type: in vivo, mouse; conditions: 17 days, PAV-951 3 mg kg^−1 IV, Irinotecan 60 mg kg^−1 IP
Protocol: In the second animal efficacy study, human HT-29 colorectal adenocarcinoma cells were grafted subcutaneously onto mice. After tumour establishment, the animals received treatment with vehicle, 3 mg kg^−1 PAV-951 or 60 mg kg^−1 of a positive control drug Irinotecan. […]. Survival was not assessed as part of the study.
HT-29 cells growing in HBSS medium were suspended in Matrigel. 0.1 ml of the cell suspension containing 5 × 10^6 cells were injected subcutaneously into the left flank region of male, 6–8 week old SCID mice. After tumour establishment, animals were divided randomly into groups of six and treated daily by IV with vehicle daily for 17 days, 3 mg kg^−1 PAV-951 three times per week for 17 days, or treated by IP with 60 mg kg^−1 Irinotecan every 4 days for 14 days. Tumour volume was calculated using the formula: (L × W2)/2 where L is the largest diameter and W is the smallest diameter of the tumour. Statistical analysis was performed using GraphPad Prism (Ver. 5.03). Statistical analysis of tumour growth inhibition between the Control and Treated groups was performed by using ne-way ANOVA followed by Dunnett’s test.

[10] = in vivo; conditions: female, Balb/c, mouse, ip
[11] = Mouse pharmacokinetics (plasma and lung); type: in vivo; conditions: PAV-621 5 mg kg^−1 IP versus PAV-951 2.5 mg kg^−1 IV
Protocol: Pharmacokinetic (PK) studies were conducted in male Sprague Dawley Rats aged 8–10 weeks or male CD1 mice aged 5–6 weeks or Balb/c nude mice. Treatment groups were made up of four animals each and dosing regimens for disclosed data is provided. Animals were sacrificed at the end of the study period using an overdose of CO2. PK studies were conducted at Vipragen Biosciences Private Limited or Pharmaron in accordance with the CPCSEA guidelines and ARRIVE guidelines.
CD1 or Balb/c nude mice aged 6–8 weeks were randomly divided into treatment groups with three animals per group. Animals in each treatment group were weighed and received either one […] intravenous dose of either vehicle (10% DMSO, 45% propylene glycol, 45% sterile water) or 2.5 mg kg^−1 PAV-951, or one intraperitoneal dose of either vehicle ([…] 10% DMSO, 45% propylene glycol, 45% sterile water) or 5 mg kg^−1 PAV-621. Animals were sacrificed after 1 h, 4 h, 8 h, 24 h post-dosing. Concentration of drug in the plasma and lung over time was measured using a Waters Acquity TQD LCMS/MS. Maximum concentration (Cmax) was determined to be the maximum concentration detected in a dataset. Half life, area under the curve and mean residence time were calculated with Phoenix WinNolin software.

[12] = system: A549 and MRC-5 cells; assay: Toxicity to A549 cancer line versus non-cancer MRC-5 cells; type: cell-based
[13] = mouse MTD; cited from earlier work
[14] = PAV-617 study, 28 days, IP, PAV-617 10 mg kg^−1 once daily

## 3,7-Di(pyrrolidin-1-yl) phenothiazinium iodide [PAV-617]
[1]
  inhibitory effect at low (500 cells per well) versus high (15 000 cells per well) density: difference between their inhibitory effects on low and high density-plated Hennes 20 cells
[2]
  recovery of cell growth after removal of compound: did not recover
[3]
  IC50: 0.81 µM
[4]; for more than 40 cell lines
  dose inhibiting growth relative to vehicle-treated cells (GI50): 2–3 digit nanomolar range
[4]; read-out: dose required to decrease cell viability below that at the time compound was added (LC50), for at least 40 cell lines
  CC50: > 100 µM
[5]
  recovery of cell growth after removal of compound: recovered over time
[6]; [14]
  tumour growth inhibition (TGI): 63%
[6]; clinical signs, weight loss, histopathological changes, blood cell count
  adverse effects at the doses of the xenograft studies: without any serious adverse effects
[7]
  EC50: 0.201 µM

## Nc1ccn([C@@H]2O[C@H](CO)[C@@H](O)C2(F)F)c(=O)n1 [Gemcitabine, Gemcitabine hydrochloride, reference compound]
[8]
  change of potency when compound is added at the time of plating rather than 24 h later: did not significantly affect
[8]; A549 (treatment 0 h after plating)
  IC50: 3.01 µM
[8]; A549 (treatment 24 h after plating), 72 h
  IC50: 3.92 µM
[6]; [14]
  tumour growth inhibition (TGI): 64%
[6]; PAV-951 study, 14 days, IV, PAV-951 1.5 mg kg^−1 once daily
  tumour growth inhibition (TGI): 84%

## c1ccc(CCNc2ncnc3cc(N4CCN(c5ccc6c(NCCc7ccccc7)ncnc6c5)CC4)ccc23)cc1 [PAV-436]
[4]
  anti-cancer activity in NCI-60 single-dose testing: lost all anti-cancer activity on all cell lines examined

## CCc1c2c(nc3ccc(OC(=O)N4CCC(N5CCCCC5)CC4)cc13)-c1cc3c(c(=O)n1C2)COC(=O)[C@]3(O)CC [Irinotecan, reference compound]
[9]
  tumour growth inhibition (TGI): 108%

## CCCCNc1ncnc2cc(N3CCN(c4ccc5c(NCCCC)ncnc5c4)CC3)ccc12 [PAV-621]
[10]
  MTD at 72 h: 7.5 mg/kg
[8]
  change of potency when compound is added at the time of plating rather than 24 h later: increased potency
[4]
  anti-cancer activity in NCI-60 single-dose testing: improvements relative to PAV-951
[11]
  exposure in the lung: comparable exposure with PAV-951
[12]
  toxicity to A549 cancer line compared with non-cancer MRC-5 cells: selectively toxic to the A549 cancer line

## cisplatin
[13]
  MTD: 6 mg/kg

## CCC1=C[C@@H]2CN(C1)Cc1c([nH]c3ccccc13)[C@@](C(=O)OC)(c1cc3c(cc1OC)N(C)[C@H]1[C@@](O)(C(=O)OC)[C@H](OC(C)=O)[C@]4(CC)C=CCN5CC[C@]31[C@@H]54)C2 [Vinorelbine]
[13]
  MTD: 10 mg/kg

Source: article PMC11651915, “Small molecule protein assembly modulators with pan-cancer therapeutic efficacy” (Open Biology, 2024)
